Measured values reported in PubChem BioAssay AID1919001 (Molecular Pharmacology Branch, DTP, NCI, 2023).

System: 699152-130-R-J1-PDC complex spheroid growth
Test: Anticancer human tumor 699152-130-R-J1-PDC patient-derived pancreatic carcinoma cell line growth inhibition [AhR]
Conditions: for IC50: curve of first compound; for viability, T/C: stronger effect = lower value
Description: Multicellular complex tumor spheroid response to aryl hydrocarbon receptor antagonists in combination with a variety of drugs and investigational agents in selected tumor cell lines
The current study was undertaken to assess response to aryl hydrocarbon receptor antagonists in combination with standard-of-care drugs and investigational agents in solid tumor complex spheroid models. Complex spheroids include a stromal component modeled by human endothelial cells (HUVEC) and fibroblasts modeled by human mesenchymal stem cells (MSCs). The concentration ranges selected for each drug and investigational agent were based upon clinically achievable concentrations if the clinical Cmax of the agent was known.
Compounds. The drugs and investigational agents: BAY 2416964 (NSC825713), GNF351 (NSC835774), CH-223191 (NSC835775), CPI-455 (NSC825282), aza-TdCyd (NSC777586), decitabine (NSC127716), belinostat (NSC758774), entinostat (NSC756642), pevonedistat (NSC761192), tazemetostat (NSC777109), talazoparib (NSC765396), olaparib (NSC753686), selinexor (NSC780203), nedisertib (M3814, NSC802822), bortezomib (NSC756655), venetoclax (NSC766270), doxorubicin (NSC123127), elimusertib (BAY189344, NSC800525), ceralasertib (AZD6738, NSC777638), TAK-243 (NSC785004), alisertib (NSC759677), etoposide (NSC141540), topotecan (NSC609699), eribulin (NSC707389), gemcitabine (NSC613327), carboplatin (NSC241240), cisplatin (NSC119875), and SN-38 (NSC673596) were obtained from the National Cancer Institute (NCI) Developmental Therapeutics Program Chemical Repository (32). The FDA-approved anticancer drug set is available from the Developmental Therapeutics Program at https://dtp.cancer.gov/organization/dscb/obtaining/available plates.htm. […] The stock solutions were prepared in dimethyl sulfoxide (DMSO, Sigma-Aldrich, St. Louis, MO, cat. D2650), except for the platinum compounds which were prepared in saline (Quality Biological, Gaithersburg, MD, cat. 114-055-101), at 800-fold the tested concentration and stored at -70 degrees C prior to their use. All drugs and investigational agents were tested over a range starting from a high concentration at or near the clinical Cmax and decreasing in half-log increments. If the clinical Cmax for an agent had not been determined, the highest concentration tested was 10 microM (Table 1).
Cell Culture. All cells were maintained in an incubator at 37 degrees C and 5% CO2 with 95% humidity. The PDC lines were cultured according to standard operating procedures established by the NCI PDMR (https://pdmr.cancer.gov). Briefly, all PDCs were thawed and cultured in Matrigel-coated flasks prepared with a working solution of 1X Ham's F-12 nutrient mix, without supplementation (Invitrogen, Waltham, MA, cat. 11765054), 100 U/mL penicillin-streptomycin (Invitrogen, cat. 15140122), and 2.5% Matrigel (Corning Inc., Corning, NY, cat. 354248) for the first three passages. All PDCs were cultured in complete DMEM/F-12 media containing advanced DMEM/F-12 (Invitrogen, cat. 12634028), 4.9% defined fetal bovine serum, heat inactivated (HyClone Laboratories Inc., Logan, UT, cat. SH30070.03HI), 389 ng/mL hydrocortisone (Sigma-Aldrich, cat. H4001), 9.7 ng/mL human EGF recombinant protein (Invitrogen, cat. PHG0313), 23.4 microg/mL adenine (Sigma-Aldrich, cat. A2786), 97.3 U/mL penicillin-streptomycin (Invitrogen, cat. 15140122), 1.9 mM L-glutamine (Invitrogen, cat. 25030081), and 9.7 microM Y-27632 dihydrochloride (Tocris Bioscience, Bristol, United Kingdom, cat. 1254). The PDCs were cultured in complete DMEM/F12 media without 10 microM Y-27632 dihydrochloride for at least two passages prior to the screen. The established cell lines NCI-H1341 and […] were cultured in DMEM/F-12, HEPES (Invitrogen, cat. 11330032), 5% defined fetal bovine serum (HyClone Laboratories Inc., cat. SH30070.03), ITS premix universal culture supplement [insulin (5 microg/mL), transferrin (5 microg/mL), and selenious acid (5 ng/mL)] […]
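Also: compound exposure lasted 7 days after spheroids had grown for 3 days.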

CC1COCCN1c1cc(-c2ccnn2C)c2ccnc(-c3ccn[nH]3)c2n1 (stereo not given) + Cc1cncc(-c2nc(NCCc3c[nH]c4ccccc34)c3ncn(C(C)C)c3n2)c1
IC50 (second compound 0.1 µM): > 1000 nM
IC50 (second compound 0.316 µM): > 1000 nM
IC50 (second compound 1 µM): > 1000 nM
IC50 (second compound 3.16 µM): 489 nM
IC50 (second compound 10 µM): < 3.16 nM
viability, T/C (second compound 0.1 µM, first compound 0.00316 µM): 109%
viability, T/C (second compound 0.1 µM, first compound 0.01 µM): 94.4%
viability, T/C (second compound 0.1 µM, first compound 0.0316 µM): 107%
viability, T/C (second compound 0.1 µM, first compound 0.1 µM): 96.5%
viability, T/C (second compound 0.1 µM, first compound 0.316 µM): 75.7%
viability, T/C (second compound 0.1 µM, first compound 1 µM): 64.4%
viability, T/C (second compound 0.316 µM, first compound 0.00316 µM): 119%
viability, T/C (second compound 0.316 µM, first compound 0.01 µM): 122%
viability, T/C (second compound 0.316 µM, first compound 0.0316 µM): 103%
viability, T/C (second compound 0.316 µM, first compound 0.1 µM): 88.3%
viability, T/C (second compound 0.316 µM, first compound 0.316 µM): 81.6%
viability, T/C (second compound 0.316 µM, first compound 1 µM): 62%
viability, T/C (second compound 1 µM, first compound 0.00316 µM): 127%
viability, T/C (second compound 1 µM, first compound 0.01 µM): 128%
viability, T/C (second compound 1 µM, first compound 0.0316 µM): 135%
viability, T/C (second compound 1 µM, first compound 0.1 µM): 105%
viability, T/C (second compound 1 µM, first compound 0.316 µM): 79.9%
viability, T/C (second compound 1 µM, first compound 1 µM): 64.9%
viability, T/C (second compound 3.16 µM, first compound 0.00316 µM): 77.6%
viability, T/C (second compound 3.16 µM, first compound 0.01 µM): 64.1%
viability, T/C (second compound 3.16 µM, first compound 0.0316 µM): 67.2%
viability, T/C (second compound 3.16 µM, first compound 0.1 µM): 57.4%
viability, T/C (second compound 3.16 µM, first compound 0.316 µM): 52.5%
viability, T/C (second compound 3.16 µM, first compound 1 µM): 46%
viability, T/C (second compound 10 µM, first compound 0.00316 µM): 5.06%
viability, T/C (second compound 10 µM, first compound 0.01 µM): 5.37%
viability, T/C (second compound 10 µM, first compound 0.0316 µM): 5.23%
viability, T/C (second compound 10 µM, first compound 0.1 µM): 5.76%
viability, T/C (second compound 10 µM, first compound 0.316 µM): 7.12%
viability, T/C (second compound 10 µM, first compound 1 µM): 9.33%

CC(C)CC(NC(=O)C(Cc1ccccc1)NC(=O)c1cnccn1)B(O)O (stereo not given) + Cc1cncc(-c2nc(NCCc3c[nH]c4ccccc34)c3ncn(C(C)C)c3n2)c1
IC50 (second compound 0.1 µM): 15 nM
IC50 (second compound 0.316 µM): 16.3 nM
IC50 (second compound 1 µM): 17 nM
IC50 (second compound 3.16 µM): 15.7 nM
IC50 (second compound 10 µM): < 0.949 nM
viability, T/C (second compound 0.1 µM, first compound 0.000949 µM): 107%
viability, T/C (second compound 0.1 µM, first compound 0.003 µM): 104%
viability, T/C (second compound 0.1 µM, first compound 0.00949 µM): 82.4%
viability, T/C (second compound 0.1 µM, first compound 0.03 µM): 1.43%
viability, T/C (second compound 0.1 µM, first compound 0.0949 µM): 2.12%
viability, T/C (second compound 0.1 µM, first compound 0.3 µM): 0.56%
viability, T/C (second compound 0.316 µM, first compound 0.000949 µM): 99.4%
viability, T/C (second compound 0.316 µM, first compound 0.003 µM): 112%
viability, T/C (second compound 0.316 µM, first compound 0.00949 µM): 93.8%
viability, T/C (second compound 0.316 µM, first compound 0.03 µM): 0.83%
viability, T/C (second compound 0.316 µM, first compound 0.0949 µM): 0.54%
viability, T/C (second compound 0.316 µM, first compound 0.3 µM): 0.39%
viability, T/C (second compound 1 µM, first compound 0.000949 µM): 119%
viability, T/C (second compound 1 µM, first compound 0.003 µM): 111%
viability, T/C (second compound 1 µM, first compound 0.00949 µM): 100%
viability, T/C (second compound 1 µM, first compound 0.03 µM): 0.8%
viability, T/C (second compound 1 µM, first compound 0.0949 µM): 0.31%
viability, T/C (second compound 1 µM, first compound 0.3 µM): 0.34%
viability, T/C (second compound 3.16 µM, first compound 0.000949 µM): 80.3%
viability, T/C (second compound 3.16 µM, first compound 0.003 µM): 92.8%
viability, T/C (second compound 3.16 µM, first compound 0.00949 µM): 91.3%
viability, T/C (second compound 3.16 µM, first compound 0.03 µM): 0.56%
viability, T/C (second compound 3.16 µM, first compound 0.0949 µM): 0.26%
viability, T/C (second compound 3.16 µM, first compound 0.3 µM): 0.31%
viability, T/C (second compound 10 µM, first compound 0.000949 µM): 10.4%
viability, T/C (second compound 10 µM, first compound 0.003 µM): 12.2%
viability, T/C (second compound 10 µM, first compound 0.00949 µM): 5.17%
viability, T/C (second compound 10 µM, first compound 0.03 µM): 0.33%
viability, T/C (second compound 10 µM, first compound 0.0949 µM): 0.3%
viability, T/C (second compound 10 µM, first compound 0.3 µM): 0.39%
